ChEMBL document CHEMBL5291721, “A preclinical secondary pharmacology resource illuminates target-adverse drug reaction associations of marketed drugs” (Nat Commun, 2023)

Experiments:
[1] = molecular target: T1, Alpha-2C adrenergic receptor (Homo sapiens, UniProt P18825); type: functional
T1 sequence (P18825 whole entry): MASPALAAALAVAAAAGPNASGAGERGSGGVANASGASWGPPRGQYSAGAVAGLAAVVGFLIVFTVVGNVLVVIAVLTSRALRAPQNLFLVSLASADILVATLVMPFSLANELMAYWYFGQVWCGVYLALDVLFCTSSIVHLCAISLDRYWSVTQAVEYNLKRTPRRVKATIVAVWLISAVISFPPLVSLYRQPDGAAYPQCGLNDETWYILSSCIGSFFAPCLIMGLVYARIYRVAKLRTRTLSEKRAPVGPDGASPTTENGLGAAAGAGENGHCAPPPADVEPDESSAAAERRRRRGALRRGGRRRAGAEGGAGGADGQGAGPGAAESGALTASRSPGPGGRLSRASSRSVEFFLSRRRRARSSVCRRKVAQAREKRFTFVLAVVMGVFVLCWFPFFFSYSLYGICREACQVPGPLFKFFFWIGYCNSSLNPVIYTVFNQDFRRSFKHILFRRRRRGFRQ

[2] = molecular target: Beta-2 adrenergic receptor (Homo sapiens, UniProt P07550)
Beta-2 adrenergic receptor, sequence (P07550 whole entry): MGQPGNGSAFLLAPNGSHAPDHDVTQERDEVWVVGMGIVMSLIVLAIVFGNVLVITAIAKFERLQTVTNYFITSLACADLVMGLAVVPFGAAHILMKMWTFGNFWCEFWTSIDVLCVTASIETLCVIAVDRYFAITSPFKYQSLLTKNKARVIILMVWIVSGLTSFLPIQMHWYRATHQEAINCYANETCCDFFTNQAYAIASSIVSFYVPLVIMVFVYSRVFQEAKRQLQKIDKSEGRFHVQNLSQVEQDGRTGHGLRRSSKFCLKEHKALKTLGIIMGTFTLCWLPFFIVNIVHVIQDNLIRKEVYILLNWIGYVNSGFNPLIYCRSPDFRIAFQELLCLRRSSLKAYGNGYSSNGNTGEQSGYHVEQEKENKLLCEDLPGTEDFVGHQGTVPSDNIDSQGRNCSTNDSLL

Vasopressin V1a receptor = Vasopressin V1a receptor (Homo sapiens, UniProt P37288)
Vasopressin V1a receptor, sequence (P37288 whole entry): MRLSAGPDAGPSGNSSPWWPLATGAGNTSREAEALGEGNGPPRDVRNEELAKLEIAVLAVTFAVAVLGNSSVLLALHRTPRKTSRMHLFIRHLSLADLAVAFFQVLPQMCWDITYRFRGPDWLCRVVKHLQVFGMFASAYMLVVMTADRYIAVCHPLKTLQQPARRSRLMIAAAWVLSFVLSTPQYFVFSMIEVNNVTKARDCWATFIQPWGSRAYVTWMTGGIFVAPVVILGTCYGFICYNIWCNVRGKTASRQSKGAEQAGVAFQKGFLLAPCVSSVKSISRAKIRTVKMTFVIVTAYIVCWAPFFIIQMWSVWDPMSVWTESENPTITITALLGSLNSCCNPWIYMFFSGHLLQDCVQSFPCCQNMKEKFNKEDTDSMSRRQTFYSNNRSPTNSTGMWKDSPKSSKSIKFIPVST

Vasopressin V2 receptor = Vasopressin V2 receptor (Homo sapiens, UniProt P30518)
Vasopressin V2 receptor, sequence (P30518 whole entry): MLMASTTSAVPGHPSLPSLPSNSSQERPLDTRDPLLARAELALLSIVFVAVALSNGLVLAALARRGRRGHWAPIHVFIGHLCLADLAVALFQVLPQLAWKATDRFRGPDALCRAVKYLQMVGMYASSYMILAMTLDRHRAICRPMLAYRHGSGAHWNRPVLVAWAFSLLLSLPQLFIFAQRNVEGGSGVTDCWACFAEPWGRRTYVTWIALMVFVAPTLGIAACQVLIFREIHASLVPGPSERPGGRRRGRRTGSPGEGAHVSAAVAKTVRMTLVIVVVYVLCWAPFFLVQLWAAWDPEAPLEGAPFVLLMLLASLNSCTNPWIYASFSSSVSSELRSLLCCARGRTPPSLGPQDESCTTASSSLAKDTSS

Cannabinoid receptor 1 [3] = molecular target: T2, Cannabinoid receptor 1 (Homo sapiens, UniProt P21554)
T2 sequence (P21554 whole entry): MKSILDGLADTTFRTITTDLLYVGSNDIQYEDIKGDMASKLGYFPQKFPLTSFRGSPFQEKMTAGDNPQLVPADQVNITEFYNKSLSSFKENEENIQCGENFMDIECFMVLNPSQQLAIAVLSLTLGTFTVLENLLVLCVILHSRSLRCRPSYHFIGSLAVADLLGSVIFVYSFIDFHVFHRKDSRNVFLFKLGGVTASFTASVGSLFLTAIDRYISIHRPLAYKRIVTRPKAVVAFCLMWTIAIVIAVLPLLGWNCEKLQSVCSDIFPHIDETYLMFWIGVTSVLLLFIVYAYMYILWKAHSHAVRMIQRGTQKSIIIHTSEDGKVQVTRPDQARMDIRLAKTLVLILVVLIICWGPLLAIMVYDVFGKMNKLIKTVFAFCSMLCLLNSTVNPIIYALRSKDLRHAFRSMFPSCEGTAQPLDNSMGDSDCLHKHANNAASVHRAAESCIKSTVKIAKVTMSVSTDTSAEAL

[4] = molecular target: T3, 5-hydroxytryptamine receptor 1A (Homo sapiens, UniProt P08908); type: functional, cell-based
T3 sequence (P08908 whole entry): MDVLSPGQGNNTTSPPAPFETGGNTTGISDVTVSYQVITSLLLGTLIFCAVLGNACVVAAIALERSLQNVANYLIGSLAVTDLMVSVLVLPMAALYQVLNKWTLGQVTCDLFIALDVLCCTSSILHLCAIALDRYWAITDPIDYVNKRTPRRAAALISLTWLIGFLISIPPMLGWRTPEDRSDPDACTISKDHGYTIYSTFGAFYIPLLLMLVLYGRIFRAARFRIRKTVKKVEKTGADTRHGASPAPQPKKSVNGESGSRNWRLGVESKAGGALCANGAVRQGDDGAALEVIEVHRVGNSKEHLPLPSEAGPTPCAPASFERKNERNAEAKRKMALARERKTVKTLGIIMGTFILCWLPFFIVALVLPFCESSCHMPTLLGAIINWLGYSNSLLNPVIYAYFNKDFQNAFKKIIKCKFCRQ

[5] = molecular target: 5-hydroxytryptamine receptor 2A (Homo sapiens, UniProt P28223); type: functional, cell-based
5-hydroxytryptamine receptor 2A, sequence (P28223 whole entry): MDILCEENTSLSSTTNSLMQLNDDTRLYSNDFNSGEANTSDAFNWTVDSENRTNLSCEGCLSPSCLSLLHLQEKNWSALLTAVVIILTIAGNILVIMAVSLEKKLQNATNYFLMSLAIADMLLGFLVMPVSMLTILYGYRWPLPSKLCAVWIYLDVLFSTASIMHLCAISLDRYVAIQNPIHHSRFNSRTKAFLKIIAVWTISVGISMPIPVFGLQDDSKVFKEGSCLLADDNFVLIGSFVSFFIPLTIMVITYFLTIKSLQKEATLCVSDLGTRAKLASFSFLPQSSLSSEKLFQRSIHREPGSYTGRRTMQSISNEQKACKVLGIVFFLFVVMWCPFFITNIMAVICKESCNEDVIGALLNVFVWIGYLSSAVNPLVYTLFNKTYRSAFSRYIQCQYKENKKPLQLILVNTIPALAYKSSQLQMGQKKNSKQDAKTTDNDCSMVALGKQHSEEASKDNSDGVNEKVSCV

Glucocorticoid receptor = molecular target: T4, Glucocorticoid receptor (Homo sapiens, UniProt P04150)
T4 sequence (P04150 whole entry): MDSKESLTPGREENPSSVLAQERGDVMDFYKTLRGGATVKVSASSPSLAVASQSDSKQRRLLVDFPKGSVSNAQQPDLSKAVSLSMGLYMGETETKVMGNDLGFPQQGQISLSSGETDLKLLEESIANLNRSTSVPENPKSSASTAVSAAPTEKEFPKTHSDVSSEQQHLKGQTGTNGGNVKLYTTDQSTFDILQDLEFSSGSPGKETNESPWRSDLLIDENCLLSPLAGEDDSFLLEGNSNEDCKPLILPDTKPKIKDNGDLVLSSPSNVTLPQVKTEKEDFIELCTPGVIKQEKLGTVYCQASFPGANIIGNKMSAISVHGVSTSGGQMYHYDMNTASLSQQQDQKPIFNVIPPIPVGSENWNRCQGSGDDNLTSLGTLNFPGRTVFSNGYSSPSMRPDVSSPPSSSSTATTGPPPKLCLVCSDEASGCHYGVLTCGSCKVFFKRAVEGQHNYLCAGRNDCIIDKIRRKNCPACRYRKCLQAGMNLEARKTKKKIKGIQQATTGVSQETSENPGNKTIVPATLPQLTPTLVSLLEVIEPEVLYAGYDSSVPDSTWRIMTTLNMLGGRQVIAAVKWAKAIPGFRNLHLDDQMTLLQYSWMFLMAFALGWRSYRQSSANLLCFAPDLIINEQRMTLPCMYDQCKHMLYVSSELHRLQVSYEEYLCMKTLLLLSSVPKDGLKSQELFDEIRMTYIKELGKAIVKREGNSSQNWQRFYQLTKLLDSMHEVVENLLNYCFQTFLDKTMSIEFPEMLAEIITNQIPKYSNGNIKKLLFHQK

[6] = molecular target: T5, Equilibrative nucleoside transporter 1 (Homo sapiens, UniProt Q99808)
T5 sequence (Q99808 whole entry): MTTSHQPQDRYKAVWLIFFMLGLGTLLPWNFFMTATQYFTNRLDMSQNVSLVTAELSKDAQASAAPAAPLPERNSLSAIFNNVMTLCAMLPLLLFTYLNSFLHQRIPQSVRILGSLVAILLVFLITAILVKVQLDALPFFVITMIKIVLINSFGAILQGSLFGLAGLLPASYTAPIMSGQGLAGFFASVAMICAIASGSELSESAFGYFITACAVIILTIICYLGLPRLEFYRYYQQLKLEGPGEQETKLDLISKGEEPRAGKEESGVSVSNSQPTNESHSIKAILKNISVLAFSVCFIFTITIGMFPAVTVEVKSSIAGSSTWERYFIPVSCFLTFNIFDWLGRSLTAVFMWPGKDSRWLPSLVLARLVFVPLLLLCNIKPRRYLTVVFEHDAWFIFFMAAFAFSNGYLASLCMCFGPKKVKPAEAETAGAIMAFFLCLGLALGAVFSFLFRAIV

D(3) dopamine receptor = D(3) dopamine receptor (Homo sapiens, UniProt P35462)
D(3) dopamine receptor, sequence (P35462 whole entry): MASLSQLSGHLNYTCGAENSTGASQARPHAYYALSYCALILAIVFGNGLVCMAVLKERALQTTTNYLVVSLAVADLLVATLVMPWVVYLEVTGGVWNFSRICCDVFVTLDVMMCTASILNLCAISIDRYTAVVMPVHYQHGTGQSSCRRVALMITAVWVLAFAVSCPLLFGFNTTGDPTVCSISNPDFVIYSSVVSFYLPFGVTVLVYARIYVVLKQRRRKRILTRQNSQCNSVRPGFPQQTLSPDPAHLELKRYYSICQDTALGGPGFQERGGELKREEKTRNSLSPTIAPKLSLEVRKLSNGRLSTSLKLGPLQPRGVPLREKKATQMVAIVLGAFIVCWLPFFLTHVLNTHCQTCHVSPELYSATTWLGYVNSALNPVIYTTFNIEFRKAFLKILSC

Histamine H3 receptor = Histamine H3 receptor (Homo sapiens, UniProt Q9Y5N1)
Histamine H3 receptor, sequence (Q9Y5N1 whole entry): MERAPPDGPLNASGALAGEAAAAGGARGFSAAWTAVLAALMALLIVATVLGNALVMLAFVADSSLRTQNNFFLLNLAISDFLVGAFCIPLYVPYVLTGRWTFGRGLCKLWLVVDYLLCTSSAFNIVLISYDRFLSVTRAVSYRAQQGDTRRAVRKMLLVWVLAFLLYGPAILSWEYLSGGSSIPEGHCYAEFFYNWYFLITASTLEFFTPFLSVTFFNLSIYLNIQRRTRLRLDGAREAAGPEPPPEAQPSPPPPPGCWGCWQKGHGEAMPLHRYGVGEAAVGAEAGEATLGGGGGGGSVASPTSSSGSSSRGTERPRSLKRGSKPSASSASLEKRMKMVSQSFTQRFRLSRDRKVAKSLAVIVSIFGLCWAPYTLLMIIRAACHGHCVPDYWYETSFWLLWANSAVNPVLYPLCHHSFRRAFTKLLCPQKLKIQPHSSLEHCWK

Cannabinoid receptor 1 [7] = molecular target: T2, Cannabinoid receptor 1; type: functional, cell-based
Cannabinoid receptor 1 [8] = molecular target: T2, Cannabinoid receptor 1; type: functional, cell-based; remark: listed apart in the source
Acetylcholinesterase = Acetylcholinesterase (Homo sapiens, UniProt P22303); type: functional
Acetylcholinesterase, sequence (P22303 whole entry): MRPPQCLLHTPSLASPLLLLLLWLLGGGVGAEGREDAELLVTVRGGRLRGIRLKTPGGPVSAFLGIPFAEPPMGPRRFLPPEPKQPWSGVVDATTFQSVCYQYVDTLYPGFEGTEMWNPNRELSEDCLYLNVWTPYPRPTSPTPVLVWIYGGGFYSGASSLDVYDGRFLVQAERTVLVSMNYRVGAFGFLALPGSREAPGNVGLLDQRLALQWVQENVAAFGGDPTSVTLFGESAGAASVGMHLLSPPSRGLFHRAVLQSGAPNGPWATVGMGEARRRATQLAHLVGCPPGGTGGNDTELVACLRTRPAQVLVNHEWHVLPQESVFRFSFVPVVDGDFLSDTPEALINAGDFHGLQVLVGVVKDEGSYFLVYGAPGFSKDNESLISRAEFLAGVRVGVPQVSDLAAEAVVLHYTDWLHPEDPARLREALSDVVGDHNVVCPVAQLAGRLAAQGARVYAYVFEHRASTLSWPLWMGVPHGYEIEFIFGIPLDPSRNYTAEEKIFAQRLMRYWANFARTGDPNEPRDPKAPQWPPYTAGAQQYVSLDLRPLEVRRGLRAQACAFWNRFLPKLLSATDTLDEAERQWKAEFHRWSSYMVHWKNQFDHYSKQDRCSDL

[9] = molecular target: 3',5'-cyclic-AMP phosphodiesterase 4A (Homo sapiens, UniProt P27815); type: functional
3',5'-cyclic-AMP phosphodiesterase 4A, sequence (P27815 whole entry): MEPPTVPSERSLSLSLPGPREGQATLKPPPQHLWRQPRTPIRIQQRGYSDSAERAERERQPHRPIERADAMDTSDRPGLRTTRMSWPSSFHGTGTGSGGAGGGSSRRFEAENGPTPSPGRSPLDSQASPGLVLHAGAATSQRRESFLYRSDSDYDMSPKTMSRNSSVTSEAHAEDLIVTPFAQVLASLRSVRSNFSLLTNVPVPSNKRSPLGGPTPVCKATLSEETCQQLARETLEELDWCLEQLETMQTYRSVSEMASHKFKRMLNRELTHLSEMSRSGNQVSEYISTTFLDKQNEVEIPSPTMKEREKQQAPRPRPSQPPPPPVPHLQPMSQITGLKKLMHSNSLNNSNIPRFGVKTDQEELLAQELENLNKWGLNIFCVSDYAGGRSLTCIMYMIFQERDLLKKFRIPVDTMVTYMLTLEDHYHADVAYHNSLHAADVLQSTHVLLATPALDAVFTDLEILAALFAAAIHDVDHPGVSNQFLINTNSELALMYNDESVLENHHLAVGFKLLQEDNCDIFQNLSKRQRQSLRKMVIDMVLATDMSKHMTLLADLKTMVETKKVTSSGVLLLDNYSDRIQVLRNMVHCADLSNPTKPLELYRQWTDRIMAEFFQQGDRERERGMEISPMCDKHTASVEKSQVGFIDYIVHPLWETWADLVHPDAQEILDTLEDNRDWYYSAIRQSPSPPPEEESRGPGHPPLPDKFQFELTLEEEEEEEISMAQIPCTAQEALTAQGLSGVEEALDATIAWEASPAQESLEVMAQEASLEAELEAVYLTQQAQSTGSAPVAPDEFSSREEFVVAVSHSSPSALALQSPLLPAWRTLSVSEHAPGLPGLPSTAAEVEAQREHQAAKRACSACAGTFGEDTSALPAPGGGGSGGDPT
Note: assay procedure not described here.

Row | SMILES | AC50 [1] | AC50 [2] | AC50 (Vasopressin V1a receptor) | AC50 (Vasopressin V2 receptor) | AC50 (Cannabinoid receptor 1 [3]) | AC50 [4] | AC50 [5] | AC50 (Glucocorticoid receptor) | AC50 [6] | AC50 (D(3) dopamine receptor) | AC50 (Histamine H3 receptor) | AC50 (Cannabinoid receptor 1 [7]) | AC50 (Cannabinoid receptor 1 [8]) | AC50 (Acetylcholinesterase) | AC50 [9]
1 | CN(C)CCN(Cc1ccccc1)c1ccccn1 [TRIPELENNAMINE] | 9.4 µM | > 30 µM | > 10 µM | > 10 µM | > 10 µM | > 10 µM | 7.3 µM | > 10 µM | > 30 µM | > 10 µM |  |  |  | > 30 µM | > 30 µM
2 | CC(=O)SCC(Cc1ccccc1)C(=O)NCC(=O)OCc1ccccc1 (stereo unspecified) [RACECADOTRIL] | > 30 µM | > 10 µM | > 30 µM | > 30 µM | > 10 µM | > 30 µM | > 30 µM | > 30 µM | > 30 µM | > 30 µM | > 30 µM | > 30 µM | 17 µM |  | 
3 | CNC1(C)C2CCC(C2)C1(C)C (stereo unspecified) [MECAMYLAMINE] | > 10 µM | > 10 µM | > 10 µM | > 10 µM | > 10 µM | > 10 µM | > 10 µM | > 10 µM | > 10 µM | > 30 µM |  |  |  |  | 
4 | CCN(CC)CCn1c(=O)c(Cc2ccc(OC)cc2)nc2ccccc21 [CAROVERINE] | 21.5 µM | > 30 µM | > 30 µM | > 30 µM | > 30 µM | > 30 µM | 9.7 µM | > 30 µM | > 30 µM | 7.34 µM | 2.38 µM | > 30 µM | > 30 µM |  | 
5 | OCCOCCN1CCN(C(c2ccccc2)c2ccc(Cl)cc2)CC1 (stereo unspecified) [HYDROXYZINE] | 2.3 µM | > 10 µM | > 10 µM | > 30 µM | > 10 µM | > 10 µM | 6 µM |  | > 30 µM | 0.29 µM | > 10 µM | > 30 µM | > 30 µM |  | 

Continued, in another order:

Row | AC50 [1] | AC50 [2] | AC50 (Vasopressin V1a receptor) | AC50 (Vasopressin V2 receptor) | AC50 (Cannabinoid receptor 1 [3]) | AC50 [4] | AC50 [5] | AC50 (Glucocorticoid receptor) | AC50 [6] | AC50 (D(3) dopamine receptor) | AC50 (Histamine H3 receptor) | AC50 (Cannabinoid receptor 1 [7]) | AC50 (Cannabinoid receptor 1 [8]) | SMILES | AC50 (Acetylcholinesterase) | AC50 [9]
6 | > 30 µM | > 30 µM | > 30 µM | > 30 µM | > 30 µM | > 30 µM | > 30 µM | > 30 µM | > 30 µM | > 30 µM | > 30 µM |  |  | CC(C)C[C@H](NC(=O)[C@H](Cc1ccccc1)NC(=O)c1cnccn1)B(O)O [BORTEZOMIB] |  | 
7 | > 10 µM | > 10 µM | > 30 µM | > 30 µM | > 10 µM | > 10 µM | > 30 µM |  | > 30 µM | > 30 µM | > 10 µM | > 30 µM | > 30 µM | C[C@]12CCC(=O)C=C1CC[C@H]1[C@@H]3CC[C@](O)(C(=O)CO)[C@@]3(C)C[C@H](O)[C@@]12F [FLUDROCORTISONE] |  | 
8 | > 10 µM | > 30 µM | > 30 µM | > 30 µM | 15.8 µM | > 10 µM | > 30 µM |  | > 30 µM | > 30 µM | > 10 µM | > 30 µM | > 30 µM | C=CC1=C(C(=O)O)N2C(=O)[C@@H](NC(=O)/C(=N\O)c3csc(N)n3)[C@H]2SC1 |  | 
9 | > 30 µM | > 30 µM | > 30 µM | > 30 µM | > 30 µM | > 30 µM | > 30 µM | > 30 µM | > 30 µM | > 30 µM | > 30 µM |  |  | C[C@H](Cn1cnc2c(N)ncnc21)OCP(=O)(O)O [TENOFOVIR ANHYDROUS] |  | 
